In US20230340127A1, “METHODS AND COMPOSITIONS FOR CANCER TREATMENT BY INHIBITION OF FBXO44” (Sanford Burnham Prebys Medical Discovery Institute, priority 2022, published 2023):

System: cancer cell lines and patient-derived glioblastoma cultures
Test: Viability of cancer cells after F5446 treatment
Assay type: cell-based, human
Details: F5446 for 48 hrs (FIG. 9G)
Method: Cell lines and culture conditions: all cancer cell lines were purchased from the American Tissue Culture Collection (ATCC) and grown in recommended culture media. Specifically, MDA-MB-231, BT-549, MCF7, A549, and H446 cells were cultured in RPMI 1640 (Corning), HEK293T, HEK293FT, and HeLa cells were cultured in DMEM (Corning), MDA-MB-231-luc cells were cultured in MEM (Corning), U2OS and HCT116 cells were cultured in McCoy's 5A (Corning). The above media were supplemented with 10% fetal bovine serum (FBS), 2 mM glutamine, and 100 U/mL penicillin and streptomycin. Patient-derived glioma stem cells (GSCs) were obtained (Xie et al., 2018) and cultured in Neurobasal medium (Thermo Fisher Scientific, #11360070) supplemented with B27 without vitamin A (Thermo Fisher Scientific, #A3353501), EGF, and bFGF (20 ng/mL each; R&D Systems), sodium pyruvate (Thermo Fisher Scientific, #11360070), and GlutaMAX (Thermo Fisher Scientific, #35050061). All cells were incubated at 37° C. in 5% CO2. The cell cultures were authenticated by short tandem repeat (STR) analysis.
To assess whether this epigenetic regulatory pathway could potentially be targeted for cancer treatment, SUV39H1 and its chemical inhibitor F5446 were used to perform experiments. IF, qRT-PCR, and growth curve experiments were performed as described in previous examples. […]

COC(=O)c1cc2c(n1S(=O)(=O)c1ccc(Cl)cc1)C(=O)C(=O)c1[nH]cc(C(=O)OCc3ccccc3)c1-2 [F5446]
survival of cancer cell lines and patient-derived glioblastoma cultures: reduced
